# Read-outs that look alike come from different tables or passages of the source.
# Tests used:
# Format in all cases: cell-based
# E. cl 144200 p99 AmpC = experiment: Broth microdilution MIC, E. cloacae 144200; settings: Enterobacter cloacae
# Description: (§1) To determine the ability of test compounds to potentiate the inhibition of the growth of bacterial strains that produce beta-lactamase enzymes, classic cell based broth microdilution MIC assays were employed. Six bacteria strains producing beta-lactamase enzymes were used: E. coli expressing the Class A Extended Spectrum Beta-Lactamase (ESBL) CTX-M-15, E. cloacae expressing the Class C P99, K. pneumoniae expressing the Class A carbapenemase KPC-2, P. aeruginosa expressing the Class B carbapenemase VIM-2, K. pneumoniae expressing the class A carbapenemase KPC-2 and the class B carbapenemase VIM-4, and S. aureus producing the Class A penicillinase PC-1. The assay was conducted in Cation Adjusted Mueller Hinton Broth (CAMHB, BD #212322, BD Diagnostic Systems, Sparks, Md.). Bacteria strains were grown for 3-5 hours in CAMBH broth. Test compounds were added to a microtiter plate in 2-fold serial dilutions in CAMHB in a final concentration range of 32 μg/mL to 0.25 μg/ml. An overlay of CAMHB containing a Beta-lactam was added to the compounds at a final static concentration of 4 μg/ml. […] In addition to the titration of test compounds the MICs of a panel of control beta-lactams is also tested to ensure the strains are behaving consistently from test to test. Once the test compound and antibiotics are added the plates can be inoculated according to CLSI broth microdilution method. After inoculation the plates are incubated for 16-20 hours at 37° C. then the Minimal Inhibitory Concentration (MIC) of the test compound is determined visually.
# (§2) Using the methodology described above in EXAMPLE III, exemplary compounds for Formula I or Formula Ia were evaluated for their ability to inhibit the growth of β-lactamase producing bacteria in the presence of a β-lactam antibiotic.
# K.P. 156319 KPC-3 = experiment: Broth microdilution MIC, K. pneumoniae 156319; settings: Klebsiella pneumoniae; fixed meropenem 4 μg/mL, CAMHB, 16-20 hours 37° C.; read-out: MIC of exemplary compounds in presence of fixed β-lactams, Fixed Mero, K.P. 156319 KPC-3
# E. coli ESBL4 CTX-M-15 = experiment: Broth microdilution MIC, E. coli ESBL4; settings: Escherichia coli
# Description: as §1, §2
# P. aerug. Ps296 VIM-2 = experiment: Broth microdilution MIC, P. aeruginosa Ps296; settings: Pseudomonas aeruginosa; fixed meropenem 4 μg/mL, CAMHB, 16-20 hours 37° C.; read-out: MIC of exemplary compounds in presence of fixed β-lactams, Fixed Mero, P. aerug. Ps296 VIM-2
# Description: as §1, §2
# S. aureus MSSA-7 PC-1 = experiment: Broth microdilution MIC, S. aureus MSSA-7; settings: Staphylococcus aureus, fixed piperacillin 4 μg/mL, CAMHB, 16-20 hours 37° C., read-out: MIC of exemplary compounds in presence of fixed β-lactams, Fixed Pip, S. aureus MSSA-7 PC-1
# Description: as §1, §2
# K.P. A-1797 KPC-2 VIM-4 = experiment: Broth microdilution MIC, K. pneumoniae A-1797; settings: Klebsiella pneumoniae; fixed meropenem 4 μg/mL, CAMHB, 16-20 hours 37° C.; read-out: MIC of exemplary compounds in presence of fixed β-lactams, Fixed Mero, K.P. A-1797 KPC-2 VIM-4
# Description: as §1, §2
# [1] = fixed ceftazidime 4 μg/mL, CAMHB, 16-20 hours 37° C., read-out: MIC of exemplary compounds in presence of fixed β-lactams, Fixed CAZ, E. cl 144200 p99 AmpC
# [2] = ESBL4CTXM15, fixed ceftazidime 4 μg/mL, CAMHB, 16-20 hours 37° C., read-out: MIC of exemplary compounds in presence of fixed β-lactams, Fixed CAZ, E. coli ESBL4 CTX-M-15
Structure (SMILES),MIC (E. cl 144200 p99 AmpC; [1]) [µg/mL],MIC (K.P. 156319 KPC-3) [µg/mL],MIC (E. coli ESBL4 CTX-M-15; [2]) [µg/mL],MIC (P. aerug. Ps296 VIM-2) [µg/mL],MIC (S. aureus MSSA-7 PC-1) [µg/mL],MIC (K.P. A-1797 KPC-2 VIM-4) [µg/mL],MIC (E. cl 144200 p99 AmpC; read-out: MIC alone) [µg/mL],"MIC (E. coli ESBL4 CTX-M-15; ESBL4CTXM15, read-out: MIC alone) [µg/mL]"
O=C(C[C@H]1CC[C@H](NCc2nccs2)CC1)N[C@H]1Cc2cccc(C(=O)O)c2OB1O [Example 39],< 4,< 4,< 4,8 to 32,< 4,8 to 32,,
"CSCCN[C@H]1CC[C@H](CC(=O)N[C@H]2Cc3cccc(C(=O)O)c3OB2O)CC1 [Example 66, (R)-2-hydroxy-3-(2-(trans-4-(2-(methylthio)ethylamino)cyclohexyl)acetamido)-3,4-dihydro-2H-benzo[e][1,2]oxaborinine-8-carboxylic acid]",< 4,< 4,< 4,8 to 32,< 4,8 to 32,,
"O=C(C[C@H]1CC[C@H](NCc2ccccn2)CC1)N[C@H]1Cc2cccc(C(=O)O)c2OB1O [Example 32, (R)-2-hydroxy-3-(2-(trans-4-(pyridin-2-ylmethylamino)cyclohexyl)acetamido)-3,4-dihydro-2H-benzo[e][1,2]oxaborinine-8-carboxylic acid]",< 4,< 4,< 4,8 to 32,< 4,> 32,,
"NCCC(N)[C@H]1CC[C@H](CC(=O)N[C@H]2Cc3cccc(C(=O)O)c3OB2O)CC1 (stereo partly drawn) [Example 76, (R)-3-(2-(trans-4-(1,3-diaminopropyl)cyclohexyl)acetamido)-2-hydroxy-3,4-dihydro-2H-benzo[e][1,2]oxaborinine-8-carboxylic acid]",< 4,< 4,< 4,8 to 32,< 4,< 4,,
"CC(C)(O/N=C(\C(=O)N[C@@H]1C(=O)N2C(C(=O)[O-])=C(C[n+]3ccccc3)CS[C@H]12)c1csc(N)n1)C(=O)O [Ceftazidime, reference compound]",,,,,,,128,> 128
"N=C(N)NC[C@H]1CC[C@H](CC(=O)N[C@H]2Cc3cccc(C(=O)O)c3OB2O)CC1 [Example 4, (R)-3-(2-(trans-4-(guanidinomethyl)cyclohexyl)acetamido)-2-hydroxy-3,4-dihydro-2H-benzo[e][1,2]oxaborinine-8-carboxylic acid]",< 4,< 4,< 4,< 4,< 4,8 to 32,,
"CNCCN[C@H]1CC[C@H](C(CO)C(=O)N[C@H]2Cc3cccc(C(=O)O)c3OB2O)CC1 (stereo partly drawn) [Example 64, (R)-2-hydroxy-3-(3-hydroxy-2-(trans-4-(2-(methylamino)ethylamino)cyclohexyl)propanamido)-3,4-dihydro-2H-benzo[e][1,2]oxaborinine-8-carboxylic acid]",< 4,< 4,< 4,< 4,< 4,< 4,,
"NCCN[C@H]1CC[C@H](CC(=O)N[C@@H]2Cc3cccc(C(=O)O)c3OB2O)CC1 [Example 50, (S)-3-(2-(trans-4-(2-aminoethylamino)cyclohexyl)acetamido)-2-hydroxy-3,4-dihydro-2H-benzo[e][1,2]oxaborinine-8-carboxylic acid]",< 4,> 32,< 4,< 4,< 4,8 to 32,,
"O=C(C[C@H]1CC[C@H](NCCNc2ccccn2)CC1)N[C@H]1Cc2cccc(C(=O)O)c2OB1O [Example 48, (R)-2-hydroxy-3-(2-(trans-4-(2-(pyridin-2-ylamino)ethylamino)cyclohexyl)acetamido)-3,4-dihydro-2H-benzo[e][1,2]oxaborinine-8-carboxylic acid]",< 4,< 4,< 4,8 to 32,< 4,8 to 32,,
"NCCNC(=O)NCCN(C(=O)NCCN)C1CC(CC(=O)N[C@H]2Cc3cccc(C(=O)O)c3OB2O)C1 (stereo partly drawn) [Example 57, (R)-3-(2-(3-(3-(2-aminoethyl)-1-(2-(3-(2-aminoethyl)ureido)ethyl)ureido)cyclobutyl)acetamido)-2-hydroxy-3,4-dihydro-2H-benzo[e][1,2]oxaborinine-8-carboxylic acid]",< 4,< 4,< 4,< 4,< 4,8 to 32,,
"NCC1CCC(CC(=O)N[C@H]2Cc3cccc(C(=O)O)c3OB2O)(C[N+](=O)[O-])CC1 (stereo partly drawn) [Example 12, (R)-3-(2-(4-(aminomethyl)-1-(nitromethyl)cyclohexyl)acetamido)-2-hydroxy-3,4-dihydro-2H-benzo[e][1,2]oxaborinine-8-carboxylic acid]",< 4,8 to 32,< 4,8 to 32,,> 32,,
"NCC1CCC(=CC(=O)N[C@H]2Cc3cccc(C(=O)O)c3OB2O)CC1 (stereo partly drawn) [Example 11, (3R)-3-(2-(4-(aminomethyl)cyclohexylidene)acetamido)-2-hydroxy-3,4-dihydro-2H-benzo[e][1,2]oxaborinine-8-carboxylic acid]",< 4,< 4,< 4,8 to 32,,8 to 32,,

# The next lines start with results.
MIC (E. cl 144200 p99 AmpC; [1]) [µg/mL],MIC (K.P. 156319 KPC-3) [µg/mL],MIC (E. coli ESBL4 CTX-M-15; [2]) [µg/mL],MIC (P. aerug. Ps296 VIM-2) [µg/mL],MIC (S. aureus MSSA-7 PC-1) [µg/mL],MIC (K.P. A-1797 KPC-2 VIM-4) [µg/mL],Structure (SMILES),MIC (E. cl 144200 p99 AmpC; read-out: MIC alone) [µg/mL],"MIC (E. coli ESBL4 CTX-M-15; ESBL4CTXM15, read-out: MIC alone) [µg/mL]"
< 4,8 to 32,< 4,< 4,< 4,8 to 32,"NC[C@H](N)C(=O)N[C@H]1CC[C@H](CC(=O)N[C@H]2Cc3cccc(C(=O)O)c3OB2O)CC1 [Example 13, (R)-3-(2-(trans-4-((S)-2,3-diaminopropanamido)cyclohexyl)acetamido)-2-hydroxy-3,4-dihydro-2H-benzo[e][1,2]oxaborinine-8-carboxylic acid]",,
< 4,< 4,< 4,< 4,< 4,< 4,"NCCNC1CC(CC(=O)N[C@H]2Cc3cccc(C(=O)O)c3OB2O)C1 (stereo partly drawn) [Example 55, (R)-3-(2-(3-(2-aminoethylamino)cyclobutyl)acetamido)-2-hydroxy-3,4-dihydro-2H-benzo[e][1,2]oxaborinine-8-carboxylic acid]",,
< 4,< 4,< 4,< 4,< 4,< 4,"CC(C)NCCN[C@H]1CC[C@H](CC(=O)N[C@H]2Cc3cccc(C(=O)O)c3OB2O)CC1 [Example 71, (R)-2-hydroxy-3-(2-(trans-4-(2-(isopropylamino)ethylamino)cyclohexyl)acetamido)-3,4-dihydro-2H-benzo[e][1,2]oxaborinine-8-carboxylic acid]",,
< 4,< 4,< 4,8 to 32,< 4,8 to 32,"N[C@H]1CC[C@H](NCC(=O)N[C@H]2Cc3cccc(C(=O)O)c3OB2O)CC1 [Example 45, 3-[2-(4-Amino-cyclohexylamino)-acetylamino]-2-hydroxy-3,4-dihydro-2H-benzo[e][1,2]oxaborinine-8-carboxylic acid]",,
< 4,< 4,< 4,< 4,< 4,< 4,"CN(C)CCN[C@H]1CC[C@H](CC(=O)N[C@H]2Cc3cccc(C(=O)O)c3OB2O)CC1 [Example 79, (R)-3-(2-(trans-4-(2-(dimethylamino)ethylamino)cyclohexyl)acetamido)-2-hydroxy-3,4-dihydro-2H-benzo[e][1,2]oxaborinine-8-carboxylic acid]",,
< 4,< 4,< 4,< 4,< 4,8 to 32,O=C(C[C@H]1CC[C@H](NCCNc2ncccn2)CC1)N[C@H]1Cc2cccc(C(=O)O)c2OB1O [Example 72],,

# From patent US10669290B2, “Beta-lactamase inhibitors” (priority 2012, dated 2020)
